Test results as given in paper PMC6753678, “Fueling Open Innovation for Malaria Transmission-Blocking Drugs: Hundreds of Molecules Targeting Early Parasite Mosquito Stages” (Frontiers in Microbiology, 2019).
pIC50: −log10 of the molar value.

Columns and labels:
[1] = test system: HepG2 cells; assay: HepG2 cytotoxicity assay; details: HepG2 cytotoxicity unified across screens; >25 set to 25.00
Method in brief: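 Cells are plated at 2,500 per well on compound-treated plates in MEM containing 10% fetal bovine serum and 1% NEAA, then incubated 48 h at 37°C.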

[2] = test system: P. falciparum late stage (stages IV-V) gametocytes; set-up: method as in Almela et al 2016; details: P. falciparum late stage gametocyte ATP assay, TCAMS screen; ref Almela et al 2016; read-out: Pf GCT ATP IC50; cited from earlier work
[3] = test system: P. falciparum late stage (stages IV-V) gametocytes; assay: P. falciparum late stage gametocyte ATP depletion assay (Pf GC-ATP); details: 1: YES; 0: NO; >10-fold selectivity over cytotoxicity

Row | SMILES | Unified cytotox [1] | pIC50 [2] | Is compound selective in assay? Pf GC-ATP active? [3]
1 | Cl.c1ccc2c(CNCCCN3CCN(CCCNCc4c5ccccc5cc5ccccc45)CC3)c3ccccc3cc2c1 [TCMDC-137909] | 6.28 µM | 6.96 | 1 (1: YES)
2 | Fc1ccc2[nH]c(-c3cccc(-c4cccc(CNCCN5CCNCC5)c4)c3)nc2c1.O=C(O)C(F)(F)F [TCMDC-132860] | 19.63 µM | 6.13 | 1 (1: YES)
3 | CN(C)CCN(Cc1ccccc1-c1ccc(CNCCc2ccccc2)cc1)C(=O)NC1CCCCC1.O=C(O)C(F)(F)F [TCMDC-140626] | 6.40 µM | 6.46 | 1 (1: YES)
4 | COc1ccc2nc3cc(Cl)ccc3c(NCCCCNc3c4ccc(Cl)cc4nc4ccc(OC)cc34)c2c1 [TCMDC-138218] | 14.47 µM | 6.70 | 1 (1: YES)
5 | CN1CCN(CCCCNc2c3ccccc3nc3ccccc23)CC1 [TCMDC-137479] | 3.39 µM | 5.88 | 0 (0: NO)
6 | COc1ccc(CCNC(C)Cc2ccc(C(=O)Nc3ccc(CC(C)NCCc4cccc(Cl)c4)cc3)cc2)cc1 (stereo not drawn) [TCMDC-139750] | 2.40 µM | 6.21 | 0 (0: NO)
7 | Cl.N=C(NCCCc1ccccc1)c1cccc(C(=N)NCCCc2ccccc2)n1 [TCMDC-137453] | 12.80 µM | 6.51 | 1 (1: YES)
8 | Br.c1cc(C2=NC3CCCCC3N2)ccc1OCCCCCOc1ccc(C2=NC3CCCCC3N2)cc1 (stereo not drawn) [TCMDC-137802] | 3.74 µM | 6.55 | 1 (1: YES)
9 | CCc1ccc(CN2CCC(CNC(=O)c3cc(-c4cccc(F)c4)cs3)C2)cc1.O=C(O)C(F)(F)F (stereo not drawn) [TCMDC-134432] | 7.22 µM | 5.90 | 0 (0: NO)
10 | CC(C)CCNC(=O)c1cnc2c(O)cccc2c1Nc1cccc(NC(=O)c2ccc(F)cc2)c1.O=C(O)C(F)(F)F [TCMDC-139606] | 5.27 µM | 5.90 | 0 (0: NO)
11 | COc1ccc(CNCc2ccc(F)cc2)cc1-c1ccc(S(=O)(=O)NCCN2CCCC2)cc1.O=C(O)C(F)(F)F [TCMDC-132294] | 6.50 µM | 5.92 | 0 (0: NO)
12 | COc1ccc2nc3cc(Cl)ccc3c(NCCCCN3CCNCC3)c2c1.Cl [TCMDC-137578] | 5.00 µM | 6.18 | 0 (0: NO)
13 | CC(C)CNCc1cccc(-c2cccc(CN(CCN(C)C)C(=O)Nc3ccccc3)c2)c1.O=C(O)C(F)(F)F [TCMDC-140592] | 15.78 µM | 6.18 | 1 (1: YES)
14 | O=C(Nc1cccc(Oc2ccccc2)c1)N[C@H]1CCN(Cc2ccc(OCCCN3CCCCC3)cc2)C1 [TCMDC-141785] | 3.52 µM | 5.95 | 0 (0: NO)
15 | Br.C=CCNC(CCCCC)c1ccc(OCCOc2ccc(C(CCCCC)NCC=C)cc2)cc1 (stereo not drawn) [TCMDC-137483] | 5.80 µM | 6.04 | 0 (0: NO)
16 | COC(=O)c1sc(-c2ccc(Cl)cc2)cc1N(CCCN1CCC(N2CCCCC2)CC1)S(=O)(=O)c1ccc(C)cc1 [TCMDC-135561] | 4.37 µM | 5.47 | 0 (0: NO)
17 | Cc1cccc2[nH]cc(C3CCN(CC4CCC(NC(=O)/C=C/c5ccc(Cl)c(Cl)c5)CC4)CC3)c12.Cl (stereo not drawn) [TCMDC-140137] | 2.95 µM | 5.84 | 0 (0: NO)
18 | COc1cc(NC(=O)c2sc(-c3ccc(Cl)cc3)cc2NC(=O)c2ccncc2)ccc1OCCN1CCCC1 [TCMDC-135398] | 3.23 µM | 6.82 | 1 (1: YES)
19 | Cl.O=C(NCCCCN1CCC(c2ccc3c(c2OCCO)CCCC3)CC1)c1ccc2oc(-c3ccc(C(F)(F)F)cc3)cc2c1 [TCMDC-138771] | 6.59 µM | 6.20 | 1 (1: YES)
20 | O=C(Nc1ccc(N2CCNCC2)cc1)c1ccn2ncc(-c3cccc(Cl)c3)c2n1 [TCMDC-132663] | 22.22 µM | 5.46 | 0 (0: NO)
21 | Cl.c1ccc2c(c1)cc(CNCCCN1CCN(CCCNCc3cc4ccccc4c4ccccc34)CC1)c1ccccc12 [TCMDC-137914] | 13.70 µM | 5.95 | 1 (1: YES)

Row | SMILES | Unified cytotox [1] | pIC50 [2] | Is compound selective in assay? Pf GC-ATP active? [3]
22 | CCc1c(CCNCCc2cccc(CCNCCc3ccc(OC)c(OC)c3CC)c2)ccc(OC)c1OC.Cl [TCMDC-132056] | 4.11 µM | 6.26 | 0 (0: NO)
23 | O=C(NCCc1ccccc1)N(Cc1cccc(-c2ccc(CNC3CCCC3)cc2)c1)C1CCN(Cc2ccccc2)CC1.O=C(O)C(F)(F)F [TCMDC-140618] | 7.42 µM | 5.88 | 0 (0: NO)
24 | COc1ccccc1CCNc1nc(C)cc(N[C@@H](Cc2ccccc2)C(=O)NCc2cccc(F)c2)n1.O=C(O)C(F)(F)F [TCMDC-134893] | 6.30 µM | 5.28 | 0 (0: NO)
25 | CCn1c(-c2nonc2N)nc2c(-c3cccc(NC(=O)Nc4cccc(C#N)c4)c3)ncc(OCCCN)c21.O=C(O)C(F)(F)F [TCMDC-136195] | 24.70 µM | 5.45 | 0 (0: NO)
26 | O=C(O)C(F)(F)F.O=S(=O)(NCCN1CCCC1)c1cccc(-c2ccc(CNCc3ccc(F)cc3)cc2)c1 [TCMDC-132289] | 7.40 µM | 5.57 | 0 (0: NO)
27 | COc1ccc(COc2cc(NCCCN)nc3ccccc23)cc1 [TCMDC-139286] | 13.98 µM | 6.25 | 1 (1: YES)
28 | COc1ccc2nc3cc(Cl)ccc3c(NCCN3CCN(C)CC3)c2c1 [TCMDC-137476] | 19.33 µM | 5.73 | 1 (1: YES)
29 | O=C(Nc1ccc(F)c(C(F)(F)F)c1)NC1CCN(CCCCCNC(=O)C2CC2c2ccc(Cl)c(Cl)c2)CC1 (stereo not drawn) [TCMDC-136259] | 6.40 µM | 5.36 | 0 (0: NO)
30 | O=C(O)C(F)(F)F.O=C(c1cccs1)N(Cc1cccc(-c2ccc(CNC3CCCC3)cc2)c1)C1CCN(Cc2ccccc2)CC1 [TCMDC-140567] | 7.10 µM | 6.07 | 0 (0: NO)
31 | CS(=O)(=O)CCNCc1nc(-c2ccc3c(=O)[nH]cnc3c2)cs1 [TCMDC-138539] | 4.20 µM | 5.57 | 0 (0: NO)
32 | Fc1ccc(N(c2nc(-c3cc(F)cc(C(F)(F)F)c3)cs2)C2CCNCC2)cc1.O=C(O)C(F)(F)F [TCMDC-136656] | 6.60 µM | 5.48 | 0 (0: NO)
33 | O=C(O)C(F)(F)F.c1cc(CNCCN2CCNCC2)cc(-c2cccc(-c3nc4ccccc4[nH]3)c2)c1 [TCMDC-132859] | 19.30 µM | 6.15 | 1 (1: YES)
34 | CN1CCN(CCCN(Cc2cccc(-c3cccc(CNC4CCCC4)c3)c2)C(=O)/C=C/c2ccccc2)CC1.O=C(O)C(F)(F)F [TCMDC-140543] | 7.17 µM | 6.10 | 0 (0: NO)
35 | CCc1c(CCNCCCCCCNCCc2ccc(OC)c(OC)c2C)ccc(OC)c1OC.Cl [TCMDC-132051] | 7.75 µM | 6.11 | 1 (1: YES)
36 | CCCCCCCN1CC[C@@H](CCCc2ccnc3ccc(OC)cc23)[C@@H](CCN)C1.O=C(O)C(=O)O [TCMDC-139278] | 2.98 µM | 6.57 | 1 (1: YES)
37 | CC(CCCC(=O)Nc1ccc(CC(C)NCCc2cccc(Cl)c2)cc1)NCCc1cccc(Cl)c1 (stereo not drawn) [TCMDC-139798] | 4.50 µM | 6.09 | 0 (0: NO)
38 | CN(C)CCCn1c(N)c(-c2nc3ccccc3[nH]2)c2nc(C#N)c(C#N)nc21 [TCMDC-123729] | 6.93 µM | 6.70 | 1 (1: YES)
39 | CN1CCN(CC2(Nc3nccc(NCCc4cn(C)c5ccccc45)n3)CCCCC2)CC1 [TCMDC-135122] | 6.94 µM | 6.15 | 0 (0: NO)
40 | Cc1cccc2nc(-c3ccc(-c4cccc(CN5CCC(CCN6CCCCC6)CC5)c4)s3)[nH]c12.O=C(O)C(F)(F)F [TCMDC-133923] | 3.87 µM | 6.34 | 0 (0: NO)
41 | CC(CCCCC(=O)Nc1ccc(CC(C)NCCc2cccc(Cl)c2)cc1)NCCc1cccc(Cl)c1 (stereo not drawn) [TCMDC-139799] | 6.59 µM | 5.78 | 0 (0: NO)
42 | Fc1ccc2[nH]c(-c3cccc(-c4ccc(CNCCN5CCNCC5)cc4)c3)nc2c1.O=C(O)C(F)(F)F [TCMDC-132863] | 24.16 µM | 5.84 | 1 (1: YES)
